Blank lines part the entries; values can stand above or below the molecule they belong to.
Legend:
[1] = test system: cultured mammalian cells; conditions: when incorporated into nuclear DNA; in vitro; cited from earlier work
[2] = test system: murine ovarian tumor (MOT); assay: tumor cell survival after treatment of mouse ascites tumor (MOT); type: in vivo, C3HeB/FeJ mice
Protocol: (§1) The murine ovarian tumor (MOT) used in these experiments arose spontaneously in the ovary of a C3H mouse and is maintained in our laboratories by serial intraperitoneal [i.p.] transplantation in female C3HeB/FeJ mice. We have examined the appropriateness of the i.p. route for IUdR administration as a means to (i) bypass the rapid intrahepatic dehalogenation of this agent, and (ii) obtain high tumor to nontumor ratios. In these experiments, mice were injected with 10^6 tumor cells 24 h prior to the i.p. administration of ^125 IUdR [5 injections, 4 h apart]. […] Tumor-to-normal-tissue ratios derived from th biodistribution results ranged from 20 for organs with actively proliferating cells (for example uterus, intestine, stomach) to over 400 for organs with nondividing cells (brain, heart).
(§2) The tumor used in these experiments is the same murine ovarian tumor desoribed above. We have determined the median survival of mice after i.p. challenge with various tumor cell inocula.
The relatively long survival of tumor-bearing mice facilitates quantitative evaluation of tumor cell killing after treatment with ^125 IUdR and can be used to calculate a cellular survival fraction. We have, therefore, studied tumor cell survival as a function of the dose of ^125 IUdR administered i.p. at 4 h intervals beginning 24 h after tumor cell i.p. inoculation [10^5 -10^6 cells].
When mice are treated with four doses of ^125 IUdR at 4-h intervals and the survival fraction plotted as a function of the dose per treatment, a rapid decrease in the tumor cell survival fraction [10^-3 ] is observed at doses of 20 μCi per treatment with the curve being flat at higher levels [FIG. 6]. When seven consecutive injections of ^125 IUdR are given, a similar steep reduction in tumor cell survival is also observed; the plateau in this regimen occurs at a survival fraction of 10^-5.

[3] = test system: 9L gliosarcoma; assay: biodistribution of radioactivity 40 h after intracerebral injection in 9L gliosarcoma-bearing and sham-operated rats
[4] = as above; conditions: rat, right brain
[5] = test system: 9L gliosarcoma; assay: scintigraphic imaging of intracerebral 9L gliosarcoma-bearing and sham-operated rats
[6] = test system: murine ovarian tumor (MOT); assay: median survival of tumor-bearing (MOT ascites) mice; type: in vivo, C3HeB/FeJ mice; conditions: 5 i.p. injections, 4 h intervals, 24 h post i.p. tumor inoculation; FIG. 7; dose-dependent
Protocol: as §1, §2

[7] = test system: murine ovarian tumor (MOT); assay: scintigraphic imaging in MOT-bearing and control mice; type: in vivo, C3HeB/FeJ mice
[8] = catabolism/dehalogenation of IUdR in vivo; conditions: IUdR escaping from the CNS
[9] = later time points (2, 16 and 24 hr), single injection of 300 μCi

Structure (SMILES): O=c1[nH]c(=O)n([C@H]2C[C@H](O)[C@@H](CO)O2)cc1[125I] [^125 IUdR, 5-[^123 I/^125 I]iodo-2'-deoxyuridine]
toxicity to cultured mammalian cells [1]: extremely toxic
tumor cell survival fraction ([2]; four i.p. doses at 4-h intervals, 20 μCi per treatment, curve flat at higher levels): 10^-3
tumor cell survival fraction (plateau) ([2]; seven consecutive i.p. injections): 10^-5

Structure (SMILES): O=c1[nH]c(=O)n([C@H]2C[C@H](O)[C@@H](CO)O2)cc1[131I] [IUdR radiolabeled with ^131 I, reference compound]
decrease in tumor cell survival ([2]; equivalent doses): does not result in anv decrease in survival

Structure (SMILES): O=c1[nH]c(=O)n([C@H]2C[C@H](O)[C@@H](CO)O2)cc1[123I] [^123 IUdR, 5-[^123 I/^125 I]iodo-2'-deoxyuridine]
activity in stomach and bladder ([3]; 40 h, mainly associated with the stomach contents and with urine): high activities
activity in all other normal tissues ([3]; 40 h, with the exception of the stomach and the bladder): low
uptake in a tumor that could be precisely excised ([3]; one animal, 40 h after injection): 12 % of the ID
tissue uptake at 40 h [4]: 0.36 ± 0.14 %ID/g
tissue uptake at 40 h ([4]; uptake in right brain [injected side], sham-operated controls, 40 h after injection, mean±SD): 0.09 ± 0.02 %ID/g
toxicity to cultured mammalian cells [1]: extremely toxic
activity in the thyroid ([5]; 0.1% potassium iodide in drinking water 48 h prior): No activity was seen
activity within the head region at subsequent intervals ([5]; 12-38 h, all tumor-bearing animals): persistence of the activity
bladder and stomach activities at subsequent intervals ([5]; 12-38 h, both groups, mainly associated with stomach contents and urine): still observed in both groups
activity in the head ([5]; 1 h after intracerebral injection, tumor-bearing [n=16] and sham-operated [n=8]): showed activity in the head
clearance of the activity from the head ([5]; all control (sham-operated) animals): ≤ 12 h
activity in the stomach and the bladder ([5]; scintigraphy, 1 h after intracerebral injection): evident
dehalogenation and excretion of free iodine ([5]; suggested by stomach and bladder activity, 1 h): rapid
tumor cell survival fraction as a function of dose ([2]; 5 i.p. injections, 4 h intervals, 24 h post i.p. tumor inoculation, FIG. 8): exponential decrease
median survival of tumor-bearing animals [6]: prolongs median survival
abdominal radioactivity, tumor-bearing and control mice ([7]; 1 h after single injection of 300 μCi): focal localization of radioactivity
abdominal activity, animals without tumor [7, 9]: cleared from the abdomen
focal area of abdominal activity, MOT-bearing mice [7, 9]: persisted only in MOT-bearing mice

catabolism/dehalogenation [8]: rapidly
Structure (SMILES): O=c1[nH]c(=O)n([C@H]2C[C@H](O)[C@@H](CO)O2)cc1I [IUdR, 5-Iodo-2'-deoxyuridine]

Reference: US5077034A, “Treatment of tumors with 5-radioiodo-2'-deoxyuridine” (priority 1990, dated 1991)
